Results taken from ChEMBL document CHEMBL5365497, “Developing Novel Coumarin-Containing Azoles Antifungal Agents by the Scaffold Merging Strategy for Treating Azole-Resistant Candidiasis” (J Med Chem, 2023).
Converted amounts (≈) assume the structure as drawn. The source made the active and inactive calls. The calls are words filed in the database; no cut-off is given here.

Columns and labels:
Candida albicans [1] = test: Antifungal activity against fluconazole-resistant Candida albicans 17# assessed as fungal growth inhibition by CLSI based microdilution method; type: functional
Candida albicans [2] = test: Antifungal activity against fluconazole-resistant Candida albicans 904 assessed as fungal growth inhibition measured for 48 hrs by CLSI based microdilution method; type: functional
Candida tropicalis = test: Antifungal activity against Candida tropicalis assessed as fungal growth inhibition by CLSI based microdilution method; type: functional
Candida albicans [3] = test: Antifungal activity against Candida albicans SC5314 assessed as fragmented nuclei at 16 ug/ml incubated for 24 hrs by TEM analysis; type: functional, organism-based; conditions: dose 16.0 µg/ml
Candida albicans [4] = test: Antifungal activity against Candida albicans SC5314 assessed as destruction of cell membrane at 16 ug/ml incubated for 24 hrs by TEM analysis; type: functional, organism-based; conditions: dose 16.0 µg/ml
Candida albicans [5] = test: Antifungal activity against fluconazole-resistant Candida albicans 632 assessed as fungal growth inhibition by CLSI based microdilution method; type: functional
Candida albicans [6] = test: Antifungal activity against fluconazole-resistant Candida albicans 901 assessed as fungal growth inhibition by CLSI based microdilution method; type: functional
Nakaseomyces glabratus = test: Antifungal activity against Candida glabrata assessed as fungal growth inhibition by CLSI based microdilution method; type: functional
Candida albicans [7] = test: Antifungal activity against fluconazole-resistant Candida albicans 904 assessed as fungal growth inhibition by CLSI based microdilution method; type: functional
Candida parapsilosis = test: Antifungal activity against Candida parapsilosis assessed as fungal growth inhibition by CLSI based microdilution method; type: functional; conditions: Lodderomyces parapsilosis
Candida albicans [8] = test: Antifungal activity against Candida albicans SC5314 assessed as destruction of cell wall at 16 ug/ml incubated for 24 hrs by TEM analysis; type: functional, organism-based; conditions: dose 16.0 µg/ml
Cryptococcus neoformans = test: Antifungal activity against Cryptococcus neoformans assessed as fungal growth inhibition by CLSI based microdilution method; type: functional
Pichia kudriavzevii = test: Antifungal activity against Pichia kudriavzevii assessed as fungal growth inhibition by CLSI based microdilution method; type: functional
Candida albicans [9] = test: Antifungal activity against fluconazole-resistant Candida albicans CaR assessed as fungal growth inhibition by CLSI based microdilution method; type: functional
Candida albicans [10] = test: Antifungal activity against Candida albicans CPCC400616 assessed as fungal growth inhibition by CLSI based microdilution method; type: functional
Candida albicans [11] = test: Antifungal activity against Candida albicans SC5314 assessed as fungal growth inhibition by CLSI based microdilution method; type: functional
Candida albicans [12] = test: Antifungal activity against Candida albicans CPCC400616 assessed as reduction in ALS3 expression at 2 ug/ml incubated for 12 hrs by RT-PCR analysis; type: functional, organism-based; conditions: dose 2.0 µg/ml
[13] = Cytotoxicity against human MRC5 cells assessed as cell growth inhibition by MTT assay; type: toxicity, cell-based
[14] = Stability in mouse plasma assessed as compound remaining at 1 uM measured for 180 mins by LC-MS/MS analysis; type: ADME, cell-free; conditions: read-out: Stability
Candida albicans [15] = test: Antifungal activity against fluconazole-resistant Candida albicans 904 assessed as decrease in CDR2 expression at 16 ug/ml measured after 16 hrs by RT-PCR analysis; type: functional, organism-based; conditions: dose 16.0 µg/ml
Candida albicans [16] = test: Antifungal activity against fluconazole-resistant Candida albicans 904 assessed as reduction in TEC1 expression at 16 ug/ml incubated for 12 hrs by RT-PCR analysis; type: functional, organism-based; conditions: dose 16.0 µg/ml
Candida albicans [17] = test: Antifungal activity against fluconazole-resistant Candida albicans 904 assessed as decrease in ERG11 expression at 16 ug/ml measured after 16 hrs by RT-PCR analysis; type: functional, organism-based; conditions: dose 16.0 µg/ml
Candida albicans [18] = test: Antifungal activity against fluconazole-resistant Candida albicans 904 assessed as inhibition of yeast to hypha morphological transition at 16 ug/ml incubated for 4 hrs by inverted microscopy; type: functional, organism-based; conditions: dose 16.0 µg/ml
Candida albicans [19] = test: Induction of ROS production in fluconazole-resistant Candida albicans 904 at 64 ug/ml incubated for 30 mins by fluorescence microscopy; type: functional, organism-based; conditions: dose 64.0 µg/ml
Candida albicans [20] = test: Antifungal activity against fluconazole-resistant Candida albicans 904 assessed as decrease in CDR1 expression at 16 ug/ml measured after 16 hrs by RT-PCR analysis; type: functional, organism-based; conditions: dose 16.0 µg/ml
Candida albicans [21] = test: Antifungal activity against Candida albicans CPCC400616 assessed as inhibition of yeast to hypha morphological transition at 2 ug/ml incubated for 4 hrs by inverted microscopy; type: functional, organism-based; conditions: dose 2.0 µg/ml
Candida albicans [22] = test: Antifungal activity against Candida albicans CPCC400616 assessed as reduction in CPH1 expression at 2 ug/ml incubated for 12 hrs by RT-PCR analysis; type: functional, organism-based; conditions: dose 2.0 µg/ml
[23] = target: T1, Lanosterol 14-alpha demethylase (Candida albicans (strain SC5314 / ATCC MYA-2876) (Yeast), UniProt P10613); test: Inhibition of CYP51 in Candida albicans SC5314 assessed as increase in eburicol level at 0.03125 ug/ml incubated for 24 hrs by GC-MS analysis; conditions: at 0.03125 µg/mL
[24] = Stability in mouse plasma assessed as half life at 1 uM measured for 180 mins by LC-MS/MS analysis; type: ADME, cell-free
[25] = target: T1, Lanosterol 14-alpha demethylase; test: Inhibition of CYP51 in Candida albicans SC5314 assessed as ergosterol level at 0.03125 ug/ml incubated for 24 hrs by GC-MS analysis (reference value: 97.58 %); set-up: scale not given: the % may be the effect or the level left; conditions: at 0.03125 µg/mL
Candida albicans [26] = test: Antifungal activity against fluconazole-resistant Candida albicans 904 assessed as reduction in EFG1 expression at 16 ug/ml incubated for 12 hrs by RT-PCR analysis; type: functional, organism-based; conditions: dose 16.0 µg/ml
[27] = target: T1, Lanosterol 14-alpha demethylase; test: Inhibition of CYP51 in Candida albicans SC5314 assessed as increase in lanosterol level at 0.03125 ug/ml incubated for 24 hrs by GC-MS analysis; conditions: at 0.03125 µg/mL
Candida albicans [28] = test: Antifungal activity against Candida albicans CPCC400616 assessed as reduction in EFG1 expression at 2 ug/ml incubated for 12 hrs by RT-PCR analysis; type: functional, organism-based; conditions: dose 2.0 µg/ml
[29] = Cytotoxicity against mouse J774.A1 cells assessed as cell growth inhibition by MTT assay; type: toxicity, cell-based
Candida albicans [30] = test: Antifungal activity against fluconazole-resistant Candida albicans 904 assessed as decrease in MDR1 expression at 16 ug/ml measured after 16 hrs by RT-PCR analysis; type: functional, organism-based; conditions: dose 16.0 µg/ml
Candida albicans [31] = test: Antibiofilm activity against Candida albicans CPCC400616 incubated for 24 hrs by XTT reduction assay; type: functional, organism-based; conditions: dose <= 128.0 µg/ml
Candida albicans [32] = test: Antifungal activity against fluconazole-resistant Candida albicans 904 assessed as reduction in ALS3 expression at 16 ug/ml incubated for 12 hrs by RT-PCR analysis; type: functional, organism-based; conditions: dose 16.0 µg/ml
[33] = target: T1, Lanosterol 14-alpha demethylase; test: Inhibition of CYP51 in Candida albicans SC5314 assessed as increase in obtusifoliol level at 0.03125 ug/ml incubated for 24 hrs by GC-MS analysis; conditions: at 0.03125 µg/mL
Candida albicans [34] = test: Antibiofilm activity against fluconazole-resistant Candida albicans 904 incubated for 24 hrs by XTT reduction assay; type: functional, organism-based; conditions: dose <= 128.0 µg/ml
Candida albicans [35] = test: Antifungal activity against Candida albicans CPCC400616 assessed as reduction in TEC1 expression at 2 ug/ml incubated for 12 hrs by RT-PCR analysis; type: functional, organism-based; conditions: dose 2.0 µg/ml
Candida albicans [36] = test: Antifungal activity against fluconazole-resistant Candida albicans 904 assessed as reduction in CPH1 expression at 16 ug/ml incubated for 12 hrs by RT-PCR analysis; type: functional, organism-based; conditions: dose 16.0 µg/ml
[37] = Metabolic stability in mouse liver microsomes assessed as half life incubated for 5 to 60 mins by LC-MS/MS analysis; type: ADME, Microsome; conditions: time 5-60 min

T1 sequence (P10613 whole entry): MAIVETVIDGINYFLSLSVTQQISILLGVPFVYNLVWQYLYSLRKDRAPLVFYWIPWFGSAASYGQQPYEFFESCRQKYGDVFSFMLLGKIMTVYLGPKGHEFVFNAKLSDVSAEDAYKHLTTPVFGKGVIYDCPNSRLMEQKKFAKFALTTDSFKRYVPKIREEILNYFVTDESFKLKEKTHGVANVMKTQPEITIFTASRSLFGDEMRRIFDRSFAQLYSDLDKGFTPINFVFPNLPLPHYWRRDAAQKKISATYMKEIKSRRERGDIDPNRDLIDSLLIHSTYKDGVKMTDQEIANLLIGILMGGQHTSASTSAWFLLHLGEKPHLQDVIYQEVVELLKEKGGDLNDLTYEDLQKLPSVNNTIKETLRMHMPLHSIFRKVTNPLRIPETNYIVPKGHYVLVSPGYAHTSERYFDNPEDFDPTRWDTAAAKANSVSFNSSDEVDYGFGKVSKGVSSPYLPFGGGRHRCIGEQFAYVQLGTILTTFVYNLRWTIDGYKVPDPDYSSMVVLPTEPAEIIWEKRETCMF

Structure (SMILES): OC(Cn1cncn1)(Cn1cncn1)c1ccc(F)cc1F [FLUCONAZOLE]
- MIC (Candida albicans [1]): > 128 µg/mL
- MFC (Candida albicans [2]): > 128 µg/mL
- MIC (Candida tropicalis): 2 µg/mL (≈ 6.53 µM)
- Activity (Candida albicans [3]): Active
- Activity (Candida albicans [4]): Active
- MIC (Candida albicans [5]): > 128 µg/mL
- MIC (Candida albicans [6]): > 128 µg/mL
- MIC (Nakaseomyces glabratus): 32 µg/mL (≈ 104 µM)
- MIC (Candida albicans [7]): > 128 µg/mL
- MIC (Candida parapsilosis): 4 µg/mL (≈ 13.1 µM)
- Activity (Candida albicans [8]): inactive
- MIC (Cryptococcus neoformans): 4 µg/mL (≈ 13.1 µM)
- MIC (Pichia kudriavzevii): 32 µg/mL (≈ 104 µM)
- MIC (Candida albicans [9]): > 128 µg/mL
- MIC (Candida albicans [10]): 4 µg/mL (≈ 13.1 µM)
- MIC (Candida albicans [11]): 0.5 µg/mL (≈ 1.63 µM)

Structure (SMILES): O=c1ccc2cc(COC(Cn3ccnc3)c3ccc(Cl)cc3Cl)ccc2o1 (centres undefined)
- Activity (Candida albicans [12]): Active
- MIC (Candida albicans [1]): 1 µg/mL (≈ 2.41 µM)
- IC50 [13]: 78.2 µM
- remaining at 3 h, 1 µM [14]: 98.7%
- Activity (Candida albicans [15]): Active
- Activity (Candida albicans [16]): Active
- Activity (Candida albicans [17]): Active
- inhibition (Candida albicans [18]): Active
- Activity (Candida albicans [19]): Active
- Activity (Candida albicans [20]): Active
- inhibition (Candida albicans [21]): Active
- Activity (Candida albicans [22]): Active
- MIC (Candida tropicalis): < 0.25 µg/mL
- MIC (Candida albicans [5]): 16 µg/mL (≈ 38.5 µM)
- MIC (Candida albicans [6]): 32 µg/mL (≈ 77.1 µM)
- MIC (Nakaseomyces glabratus): 0.25 µg/mL (≈ 0.602 µM)
- MIC (Candida albicans [7]): 8 µg/mL (≈ 19.3 µM)
- MIC (Candida parapsilosis): < 0.25 µg/mL
- inhibition (INH) [23]: Active
- half-life at 1 µM [24]: > 360 min
- Activity [25]: 0.99%
- MIC (Cryptococcus neoformans): 4 µg/mL (≈ 9.63 µM)
- Activity (Candida albicans [26]): Active
- inhibition (INH) [27]: Active
- MIC (Pichia kudriavzevii): 0.5 µg/mL (≈ 1.2 µM)
- Activity (Candida albicans [28]): Active
- MIC (Candida albicans [9]): 0.5 µg/mL (≈ 1.2 µM)
- IC50 [29]: 24.4 µM
- MIC (Candida albicans [10]): 0.06 µg/mL (≈ 0.144 µM)
- Activity (Candida albicans [30]): Active
- Activity (Candida albicans [31]): Dose-Dependent Effect
- MIC (Candida albicans [11]): 0.03 µg/mL (≈ 0.0722 µM)
- Activity (Candida albicans [32]): Active
- inhibition (INH) [33]: Active
- Activity (Candida albicans [34]): Dose-Dependent Effect
- Activity (Candida albicans [35]): Active
- Activity (Candida albicans [36]): Active
- half-life [37]: 6.09 min
